# According to US7951942B2, “Crystals of phenylalanine derivatives and production methods thereof” (Ajinomoto Co., Inc., priority 2003, dated 2011):
# Experiments:
# [1] = Temperature changes of the powder X-ray diffraction patterns (crystal transition, T-G curves); assay type: physicochemical; settings: from T-G curves (FIG. 10)
# Experimental: Measurement of the Temperature Changes of the Powder X-Ray Diffraction Patterns of the α-Type, γ-Type, ε-Type, and η-Type Crystals
# • (1) The measuring method and conditions
# The measurement was conducted in the same conditions as those of the above measurement of the powder X-ray diffraction patterns.
# [2] = Water adsorption of the crystals (vapor adsorption isotherm); assay type: physicochemical; settings: 25° C.
# Experimental: The Measuring Method of the Water Adsorption of the Crystals (Creation of the Vapor Adsorption Isotherm)
# • (1) The measuring method of water adsorption amount and conditions
# 100 mg of each of the above obtained α-type, γ-type and ε-type crystals were weighed and vacuum dried at 50° C. overnight. Then, under the constant temperature of 25° C., the water adsorption amount of the crystals was determined with a full automatic vapor adsorption measuring apparatus (BELSORP-18, BEL Japan, Inc.) (Mitsuiki et al., J. Agric. Food Chem., vol. 46, no. 9, pp. 3528-3534 (1998)). • (2) The measurement results
structure (smiles),measurement,setting,value
COC(=O)[C@H](Cc1ccc(-n2c(=O)c3cc(N(C)C)ccc3n(C)c2=O)cc1)NC(=O)c1c(Cl)cccc1Cl [α-type crystal],order of thermodynamic stability of crystal forms at room temperature,[1]; room temperature,α-type>η-type>γ-type>ε-type>θ-type
same,water adsorption (in words),[2]; listed as α-type,low water adsorption
COC(=O)[C@H](Cc1ccc(-n2c(=O)c3cc(N(C)C)ccc3n(C)c2=O)cc1)NC(=O)c1c(Cl)cccc1Cl [γ-type crystal],water adsorption (in words),[2]; listed as γ-type,particularly low water adsorption
COC(=O)[C@H](Cc1ccc(-n2c(=O)c3cc(N(C)C)ccc3n(C)c2=O)cc1)NC(=O)c1c(Cl)cccc1Cl [ε-type crystal],water adsorption (in words),[2]; listed as ε-type,particularly low water adsorption
COC(=O)[C@H](Cc1ccc(-n2c(=O)c3cc(N(C)C)ccc3n(C)c2=O)cc1)NC(=O)c1c(Cl)cccc1Cl [θ-type crystal],thermodynamic stability in high temperature range,[1]; high temperature range,stably exists
